In patent US11820762B2, “Compounds as potential therapeutic agents targeting various neurodegenerative diseases” (The Hong Kong University of Science and Technology, priority 2020, dated 2023):

Assays:
RRM domain of hnRNP H = target: T1, RRM domain of hnRNP H (Homo sapiens, UniProt P31943); assay: 1H-15N HSQC NMR titration of hnRNP H RRM domain; assay type: binding; conditions: ratios 1:5 and 1:10
T1 construct: HSQC spectra of RRM1/2 of hnRNP H; hexahistidine (cleaved yes); made in house; host or cells: Escherichia coli BL21(DE3), pET-28a(+)
T1 sequence (P31943 1-194 limits assumed): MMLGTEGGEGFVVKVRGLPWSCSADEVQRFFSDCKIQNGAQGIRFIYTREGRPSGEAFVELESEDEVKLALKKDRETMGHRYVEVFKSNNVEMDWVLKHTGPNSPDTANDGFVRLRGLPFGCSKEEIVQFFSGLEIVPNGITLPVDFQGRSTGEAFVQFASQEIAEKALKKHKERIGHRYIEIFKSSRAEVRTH
Procedure: The coding sequence of the RRM domain of hnRNP H/F, or human Orc6 was inserted into the expression vector pET-28a(+) (Novagen). Protein was expressed in Escherichia coli BL21(DE3) at 37° C. for 5 hours. Cell lysates were subject to affinity purification with nickel-nitrilotriacetic acid resin (Qiagen) followed by cleavage of hexahistidine tag with Protease 3C enzyme. Products were further purified on a Superdex 75 column (GE Healthcare). For NMR studies, uniformly ^15N labeled protein was expressed and purified as described above, except for cells grown in M9 medium containing 100% ^15N enriched ammonium chloride (Cambridge Isotopes) and d-glucose.
Titration experiments were performed by recording a series of 2D ^15N-HSQC spectra on uniformly ^15N-labeled RRM domain (˜0.1 mM) in the presence of different amounts of DNA/RNA or compounds at 25° C. Protein samples and stock solutions of DNA/RNA were all prepared in 20 mM potassium phosphate buffer and 70 mM KCl, pH 7.0, 10% D2O. All compounds were dissolved in isotope-labeled d6-DMSO (Sigma-Aldrich) at about 50 mM concentration, working as stock solutions. To avoid chemical shift changes of protein samples resulted from d6-DMSO addition, 10 μL d6-DMSO was added into 500 μL of 0.1 mM protein solution in the NMR buffer (20 mM potassium phosphate buffer and 70 mM KCl, pH 7.0, 10% D2O) and then the 2D HSQC was recorded as a reference.
In this scenario, specific RNA-binding proteins (RBPs), like hnRNP H, are recruited by the RNA foci, resulting in RNA processing impairment and further cytotoxicity to the central nervous system^30,36,37. Therefore, we tested the binding possibility of cA with the RRM domain of hnRNP H by NMR titration. […] Intriguingly, the DNA (G4C2)4 (SEQ ID NO: 5) G4 was also shown a potent binding affinity to the RRM domain of hnRNP H (FIG. 4C).

Tau-R3 fibrils = target: T2, Tau-R3 fibrils (Homo sapiens, UniProt P10636); assay: TEM imaging of Tau-R3 fibrils; assay type: biochemical; conditions: cA 10 μg/ml, cB 5 μg/ml, cC 10 μg/ml
T2 construct: Tau-R3 protein was synthesized and purchased from ChinaPeptides Co., Ltd; purchased ChinaPeptides Co., Ltd; host or cells: chemical synthesis
Procedure: Samples from ThT fluorescence experiments were directly applied to a 300-mesh carbon coating copper grid. 20 μL of aggregate samples were dispensed onto a sheet of parafilm, and a copper grid was placed onto the sample drop for 5 mins. The copper grid with samples was moved to water drop for 5 mins-washing, and then stained with 2% uranyl acetate for 5 mins. Images were captured using a transmission electron microscope (Thermo Scientific Talos L120C) at a magnification of 13500× and an acceleration voltage of 120 kV.
In the C9orf72 ALS/FTD, there is a strong genetic association between the microtubule-binding protein, tau and the G4C2 HRE. […] The co-expression of Tau and G4C2 repeats produces a synergistic deterioration of the neurodegeneration phenotype of ALS/FTD^46. Considering the tight correlation of Tau aggregation with the ALS/FTD pathogenesis, we tested our compounds in a non-cell-based Tau-R3 aggregation inhibition assay. […] Moreover, we conducted high magnification TEM imaging to characterize the morphological changes of Tau-R3 fibrils with cA, cB and cC treatments. […] Furthermore, the misfolding of tau protein into filaments in neurons of the central nervous system can be found in various neurodegenerative diseases, such as Alzheimer's disease et al. Therefore, the inhibition on tau aggregation represented a potential of cA and its derivatives in targeting multiple other neurodegenerative diseases more than ALS.

[1] = tested on: G4C2 RNA foci in (G4C2)29 overexpressed Neuro2a cells; assay: RNA fluorescent in situ hybridisation, RNA foci numbers; assay type: cell-based; design: CAGG (control probe) RNA foci numbers: dose or concentration left out as unconfirmed; conditions: for G4C2 RNA foci numbers in cells: 1 g/ml treatment for 2 days; for CAGG (control probe) RNA foci numbers: treatment for 2 days
Procedure: Neuro2a cells planted on coverslips were transfected with pHR-Tre3G-29xGGGGCC-12xMS2 plasmid (#99149), incubated for 2-3 days and then fixed with 4% paraformaldehyde for 15 min at room temperature. Cells were permeabilised with 0.1% TritonX-100 in PBS for 10 min before hybridisation. Target probe ([…]) (SEQ ID NO: 1) with a 5′-Cy3 and control probe ([…]) (SEQ ID NO: 2) with a 5′-Cy5 were added to the hybridisation solution (0.9M NaCl, 0.02M Tris-HCl, 0.01% SDS, 20% formamide). Cells were then incubated in the mixed solution at 46° C. for 3 h. Cells were washed three times in washing solution (0.02M Tris-HCl, 0.001% SDS, 5 mM EDTA) at 48° C., 15 min each time. Then, cells were stained with primary antibodies (Anti-DNA G-quadruplex (G4) antibody (Cat. No. MABE1126) or Anti-hnRNP H antibody (ab10374)) at 1:500 dilution and incubated at 4° C. overnight. In the next day, cells were washed three times with PBS (10 min each time), and then incubated with secondary antibodies (Alexa 488 anti-mouse for G4 or Alex 488 anti-rabbit for hnRNP H) at 1:500 dilution for 1 h at room temperature. Superfluous secondary antibodies were washed away with PBS for three times (10 min each time). Then cells were incubated with DAPI at 1:5000 dilution for 5 mins and washed with PBS once. Finally, cells on slides were air-dried, mounted in Hydromount medium and analysed by confocal microscopy (Leica, SP8).
Firstly, we confirmed that RNA foci were specifically observed in the (G4C2)29 (SEQ ID NO: 6) overexpressed Neuro2a cells (FIG. 8C).

T2 sequence (P10636 623-653 limits assumed): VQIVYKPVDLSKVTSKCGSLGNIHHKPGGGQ

Compound	binding to RRM domain of hnRNP H by NMR titration (RRM domain of hnRNP H)	morphological change of Tau-R3 fibrils (TEM) (Tau-R3 fibrils)	G4C2 RNA foci numbers in cells [1]	CAGG (control probe) RNA foci numbers [1]
COc1c2c(c(O)c3c(=O)c4cccc(O[C@@H]5OC(C(=O)O)=C[C@H](O)[C@H]5O)c4oc13)-c1c(cc(CC(C)=O)c(C(=O)O)c1O)CC2 [cB, chrexanthomycin B]	much weaker bindings	broken into shorter and thinner fragments	–	–
CC(=O)Cc1cc2c(c(O)c1C(=O)O)-c1c(c(O)c3oc4c(O[C@@H]5O[C@H](C(=O)O)[C@@H](O)[C@H](O)[C@H]5O)cccc4c(=O)c3c1O)CC2 [cC, chrexanthomycin C]	a little bit stronger than cA	broken into shorter and thinner fragments	significantly reduced	seldomly changed
CC(=O)Cc1cc2c(c(O)c1C(=O)O)-c1c(c(O)c3oc4c(O[C@@H]5OC(C(=O)O)=C[C@H](O)[C@H]5O)cccc4c(=O)c3c1O)CC2 [cA, chrexanthomycin A]	bound to the RRM domain of hnRNP H	broken into shorter and thinner fragments	significantly reduced	seldomly changed
